Experimental data from US20260015325A1, “ALKOXY HETEROARYL- CARBOXAMIDE OR THIOAMIDE COMPOUNDS” (SYNGENTA CROP PROTECTION AG, priority 2022, published 2026).
Like-named read-outs stand apart in the source and are kept apart here.

How the values were obtained:
Type in all cases: in vivo
[1] = tested on: Tetranychus urticae (Two-Spotted Spider Mite); assay: whole plant or invertebrate; details: foliar, 192 h
Protocol: Example B11: Tetranychus urticae (Two-Spotted Spider Mite): Feeding/Contact Activity
Bean leaf discs on agar in 24-well microtiter plates were sprayed with aqueous test solutions prepared from 10′000 ppm DMSO stock solutions. After drying the leaf discs were infested with a mite population of mixed ages. The samples were assessed for mortality on mixed population (mobile stages) 8 days after infestation.

[2] = tested on: Myzus persicae (Green Peach Aphid); assay: Myzus persicae (Green Peach Aphid): systemic activity, pea seedlings; details: 144 h
Protocol: Example B7: Myzus persicae (Green Peach Aphid). Systemic Activity
Roots of pea seedlings infested with an aphid population of mixed ages were placed directly into aqueous test solutions prepared from 10′000 DMSO stock solutions. The samples were assessed for mortality 6 days after placing seedlings into test solutions.

[3] = tested on: Euschistus heros (Neotropical Brown Stink Bug); assay: Euschistus heros (Neotropical Brown Stink Bug), soybean leaves; details: 120 h, read-out: effect in at least one of the two categories (mortality or growth inhibition); for percent effect (mortality or growth inhibition) at 200 ppm: application rate of 200 ppm, N2 nymphs on sprayed soybean leaves, 5 days after infestation
Protocol: Example B4: Euschistus heros (Neotropical Brown Stink Bug)
Soybean leaves on agar in 24-well microtiter plates were sprayed with aqueous test solutions prepared from 10′000 ppm DMSO stock solutions. After drying the leaves were infested with N2 nymphs. The samples were assessed for mortality and growth inhibition in comparison to untreated samples 5 days after infestation.

[4] = tested on: Bemisia tabaci (Cotton White Fly); assay: Bemisia tabaci (Cotton White Fly): feeding/contact activity, cotton leaf discs; details: foliar, 144 h
Protocol: Example B1: Bemisia tabaci (Cotton White Fly): Feeding/Contact Activity
Cotton leaf discs were placed on agar in 24-well microtiter plates and sprayed with aqueous test solutions prepared from 10′000 ppm DMSO stock solutions. After drying the leaf discs were infested with adult white flies. The samples were checked for mortality 6 days after incubation.

[5] = tested on: Myzus persicae (Green Peach Aphid); assay: Myzus persicae (Green Peach Aphid): intrinsic activity, sucrose solution; details: 120 h
From the text: Example B8: Myzus persicae (Green Peach Aphid). Intrinsic Activity
Test compounds prepared from 10′000 ppm DMSO stock solutions were applied by pipette into 24-well microtiter plates and mixed with sucrose solution. The plates were closed with a stretched Parafilm. A plastic stencil with 24 holes was placed onto the plate and infested pea seedlings were placed directly on the Parafilm. The infested plate was closed with a gel blotting paper and another plastic stencil and then turned upside down. The samples were assessed for mortality 5 days after infestation.

[6] = tested on: Myzus persicae (Green Peach Aphid); assay: Myzus persicae (Green Peach Aphid): feeding/contact activity, sunflower leaf discs; details: foliar, 144 h
Protocol: Example B6: Myzus persicae (Green Peach Aphid): Feeding/Contact Activity
Sunflower leaf discs were placed onto agar in a 24-well microtiter plate and sprayed with aqueous test solutions prepared from 10′000 ppm DMSO stock solutions. After drying, the leaf discs were infested with an aphid population of mixed ages. The samples were assessed for mortality 6 days after infestation.

[7] = tested on: Frankliniella occidentalis (Western Flower Thrips); assay: Frankliniella occidentalis (Western Flower Thrips): feeding/contact activity, sunflower leaf discs; details: foliar, 168 h, application rate of 200 ppm, mixed ages on sprayed sunflower leaf discs, 7 days after infestation
Protocol: Example B5: Frankliniella occidentalis (Western Flower Thrips): Feeding/Contact Activity
Sunflower leaf discs were placed on agar in 24-well microtiter plates and sprayed with aqueous test solutions prepared from […] stock solutions. After drying the leaf discs were infested with a Frankliniella population of mixed ages. The samples were assessed for mortality 7 days after infestation.

[8] = application rate of 200 ppm, mixed population (mobile stages) on sprayed bean leaf discs, 8 days after infestation, read-out: mortality
[9] = test rate of 24 ppm, systemic, roots of infested pea seedlings in test solution, 6 days, read-out: mortality
[10] = application rate of 200 ppm, adult white flies on sprayed cotton leaf discs, 6 days after incubation, read-out: mortality
[11] = test rate of 12 ppm, intrinsic, mixed with sucrose solution under Parafilm, 5 days after infestation, read-out: mortality
[12] = application rate of 200 ppm, mixed ages on sprayed sunflower leaf discs, 6 days after infestation, read-out: mortality

C[C@@H](COc1cnc(Cl)c(C(=O)NC2(C#N)CC2)c1)N(CC#N)S(=O)(=O)C(F)(F)F [Compound P-8, 2-chloro-N-(1-cyanocyclopropyl)-5-[(2S)-2-[cyanomethyl(trifluoromethylsulfonyl)amino]propoxy]pyridine-3-carboxamide]
≥ 80%: mortality at 200 ppm [1, 8] | mortality at 24 ppm [2, 9] | percent effect (mortality or growth inhibition) at 200 ppm [3] | mortality at 200 ppm [4, 10] | mortality at 12 ppm [5, 11] | mortality at 200 ppm [6, 12]

CC(C)C(=O)OCN([C@@H](C)COc1cnc(Cl)c(C(=O)NC2(C#N)CC2)c1)S(=O)(=O)C(F)(F)F [Compound P-9, [[(1S)-2-[[6-chloro-5-[(1-cyanocyclopropyl)carbamoyl]-3-pyridyl]oxy]-1-methyl-ethyl]-(trifluoromethylsulfonyl)amino]methyl 2-methylpropanoate]
≥ 80%: mortality at 200 ppm [7] | mortality at 200 ppm [4, 10] | mortality at 12 ppm [5, 11] | mortality at 200 ppm [6, 12]

COCN([C@@H](C)COc1cnc(Cl)c(C(=O)N(C(C)=O)C2CC2)c1)S(=O)(=O)C(F)(F)F [Compound P-12, N-acetyl-2-chloro-N-cyclopropyl-5-[(2S)-2-[methoxymethyl(trifluoromethylsulfonyl)amino]propoxy]pyridine-3-carboxamide]
≥ 80%: mortality at 200 ppm [1, 8] | percent effect (mortality or growth inhibition) at 200 ppm [3] | mortality at 200 ppm [4, 10] | mortality at 12 ppm [5, 11] | mortality at 200 ppm [6, 12]

CC(C)C(=O)OCN([C@@H](C)COc1cnc(Cl)c(C(=O)NC2CC2)c1)S(=O)(=O)C(F)(F)F [Compound P-13, [[(1S)-2-[[6-chloro-5-(cyclopropylcarbamoyl)-3-pyridyl]oxy]-1-methyl-ethyl]-(trifluoromethylsulfonyl)amino]methyl 2-methylpropanoate]
≥ 80%: mortality at 200 ppm [1, 8] | mortality at 24 ppm [2, 9] | mortality at 200 ppm [4, 10] | mortality at 12 ppm [5, 11] | mortality at 200 ppm [6, 12]

COC(=O)N([C@@H](C)COc1cnc(Cl)c(C(=O)NC2CC2)c1)S(=O)(=O)C(F)(F)F [Compound P-14, methyl N-[(1S)-2-[[6-chloro-5-(cyclopropylcarbamoyl)-3-pyridyl]oxy]-1-methyl-ethyl]-N-(trifluoromethylsulfonyl)carbamate]
≥ 80%: mortality at 200 ppm [1] | mortality at 24 ppm [2] | percent control (mortality or growth inhibition) at 200 ppm [3] | mortality at 200 ppm [4] | mortality at 12 ppm [5] | mortality at 200 ppm [6]

C[C@@H](COc1cnc(Cl)c(C(=O)NC2CC2)c1)N(CC#N)S(=O)(=O)C(F)(F)F [Compound P-15, 2-chloro-5-[(2S)-2-[cyanomethyl (trifluoromethylsulfonyl)amino]propoxy]-N-cyclopropyl-pyridine-3-carboxamide]
≥ 80%: mortality at 200 ppm [1, 8] | mortality at 24 ppm [2, 9] | percent effect (mortality or growth inhibition) at 200 ppm [3] | mortality at 200 ppm [4, 10] | mortality at 12 ppm [5, 11] | mortality at 200 ppm [6, 12]

C[C@@H](COc1cnc(Cl)c(C(=O)NC2CC2)c1)N(C)S(=O)(=O)C(F)(F)F [Compound P-16, 2-chloro-N-cyclopropyl-5-[(2S)-2-[methyl(trifluoromethylsulfonyl)amino]propoxy]pyridine-3-carboxamide]
≥ 80%: mortality at 200 ppm [1, 8] | mortality at 24 ppm [2, 9] | percent effect (mortality or growth inhibition) at 200 ppm [3] | mortality at 12 ppm [5, 11] | mortality at 200 ppm [6, 12]

Cc1ncc(OC[C@H](C)NS(=O)(=O)C(F)(F)F)cc1C(=O)NC1CON(CC(F)(F)F)C1=O (stereo partly drawn) [Compound P-30, 2-methyl-N-[3-oxo-2-(2,2,2-trifluoroethyl)isoxazolidin-4-yl]-5-[(2S)-2-(trifluoromethylsulfonylamino)propoxy]pyridine-3-carboxamide]
≥ 80%: mortality at 200 ppm [7]

Cc1ncc(OC[C@H](C)NS(=O)(=O)C(F)(F)F)cc1C(=O)NC1CCN(c2ccc(F)cc2)C1=O (stereo partly drawn) [Compound P-35, N-[1-(4-fluorophenyl)-2-oxo-pyrrolidin-3-yl]-2-methyl-5-[(2S)-2-(trifluoromethylsulfonylamino)propoxy]pyridine-3-carboxamide]
≥ 80%: mortality at 200 ppm [7]

CCNC(=O)c1cc(OC[C@H](C)NS(=O)(=O)C(F)(F)F)cnc1Cl [Compound P-50, 2-chloro-N-ethyl-5-[(2S)-2-(trifluoromethylsulfonylamino)propoxy]pyridine-3-carboxamide]
≥ 80%: percent effect (mortality or growth inhibition) at 200 ppm [3] | mortality at 12 ppm [5, 11] | mortality at 200 ppm [6, 12]

C[C@@H](COc1cnc(Cl)c(C(=O)NC(C)(C)C#N)c1)NS(=O)(=O)C(F)(F)F [Compound P-57, 2-chloro-N-(1-cyano-1-methyl-ethyl)-5-[(2S)-2-(trifluoromethylsulfonylamino)propoxy]pyridine-3-carboxamide]
≥ 80%: mortality at 200 ppm [1, 8] | mortality at 24 ppm [2, 9] | mortality at 200 ppm [4, 10] | mortality at 12 ppm [5, 11] | mortality at 200 ppm [6, 12]

C[C@@H](COc1cnc(Cl)c(C(=O)N(C)C2CC2)c1)NS(=O)(=O)C(F)(F)F [Compound P-58, 2-chloro-N-cyclopropyl-N-methyl-5-[(2S)-2-(trifluoromethylsulfonylamino)propoxy]pyridine-3-carboxamide]
≥ 80%: mortality at 24 ppm [2, 9] | percent effect (mortality or growth inhibition) at 200 ppm [3] | mortality at 200 ppm [4, 10] | mortality at 12 ppm [5, 11] | mortality at 200 ppm [6, 12]

COCN([C@@H](C)COc1cnc(C)c(C(=O)NC2CC2)c1)S(=O)(=O)C(F)(F)F [Compound P-61, N-cyclopropyl-5-[(2S)-2-[methoxymethyl (trifluoromethylsulfonyl)amino]propoxy]-2-methyl-pyridine-3-carboxamide]
≥ 80%: percent effect (mortality or growth inhibition) at 200 ppm [3]

Cc1ncc(OC[C@H](C)NS(=O)(=O)C(F)(F)F)cc1C(=O)NC1CC1 [Compound P-62, N-cyclopropyl-2-methyl-5-[(2S)-2-(trifluoromethylsulfonylamino)propoxy]pyridine-3-carboxamide]
≥ 80%: mortality at 200 ppm [7]

Cc1cnc(OC[C@H](C)NS(=O)(=O)C(F)(F)F)cc1C(=O)NC12CC(C1)C2 [Compound P-66, N-(1-bicyclo[1.1.1]pentanyl)-5-methyl-2-[(2S)-2-(trifluoromethylsulfonylamino)propoxy]pyridine-4-carboxamide]
≥ 80%: percent effect (mortality or growth inhibition) at 200 ppm [3]

Cc1cnc(OC[C@H](C)NS(=O)(=O)C(F)(F)F)cc1C(=O)NCCOc1ccccc1F [Compound P-71, N-[2-(2-fluorophenoxy)ethyl]-5-methyl-2-[(2S)-2-(trifluoromethylsulfonylamino)propoxy]pyridine-4-carboxamide]
≥ 80%: percent effect (mortality or growth inhibition) at 200 ppm [3]
